System: Winter barley
Assay: Post-emergence test/greenhouse: damage to crop plants
Format: in vivo
Settings: greenhouse, about three weeks after application
Experimental: The active compound (flucarbazone-sodium and propoxycarbazone-sodium were each used as WG 70) or safener components are in each case dissolved in a few ml (generally 2-3 ml) of solvent (generally acetone or N,N-dimethyl-formamide), and the solutions are combined and then—if appropriate after addition of an emulsifier—diluted with water to the desired concentration. In general, an aqueous spray liquor was prepared using 0.5% of the additive Renex-36. The test plants are grown under controlled conditions (temperature, light, atmospheric humidity) in a greenhouse. The test plants are sprayed when they have reached a height of 5-15 cm. The concentration of the spray liquor is chosen such that the particular amounts of active compound desired are applied in 500 l of water/ha. After spraying, the pots with the test plants are kept in a greenhouse chamber under controlled conditions (temperature, light, atmospheric humidity) until the test has ended. About three weeks after the application, the degree of damage to the crop plants is rated in % damage in comparison to the development of the untreated control. The figures denote: • 0%=no damage (like untreated control) • 100%=total destruction/damage

Row | SMILES | Damage Winter barley (in %) (application rate 8 g of a.i./ha) [%] | Damage Winter barley (in %) (application rate 2 g of a.i./ha) [%] | Damage Winter barley (in %) (application rate 4 g of a.i./ha, 0%=no damage, 100%=total destruction) [%]
1 | COc1nn(C(=O)NS(=O)(=O)c2ccccc2OC(F)(F)F)c(=O)n1C [flucarbazone-sodium, 2-(2-trifluoromethoxyphenylsulphonylaminocarbonyl)-4-methyl-5-methoxy-2,4-dihydro-3H-1,2,4-triazol-3-one] | 40 | – | –
2 | CCCOc1nn(C(=O)NS(=O)(=O)c2ccccc2C(=O)OC)c(=O)n1C [propoxycarbazone-sodium, 2-(2-methoxycarbonylphenylsulphonylaminocarbonyl)-4-methyl-5-n-propoxy-2,4-dihydro-3H-1,2,4-triazol-3-one] | – | 35 | 60

— patent publication US7615514B2, “Selective herbicides based on substituted arylsulphonylaminocarbonyl-triazolinones and safeners” (Bayer CropScience AG, priority 2001, dated 2009)
